Laboratory results: patent publication US12102089B2, “Method for inactivating mold spores” (DSM IP ASSETS B.V., priority 2017, dated 2024)

Test system: in-house strain of Aspergillus niger
Experiment: Heat treatment of in-house Aspergillus niger spores in ice tea with natamycin, visual growth
Type: cell-based
Parameters: key to growth or no growth: growth (+); no growth (−)
Method: Commercially available ice tea (Lipton, peach flavor, non-carbonated, 1.5 L) was adjusted to high water hardness by adding 1 ml of a solution of 39 g CaCl2 and 27 g MgCl2 added to 934 g water. ⅓ of this ice tea preparation (the pH of which was 3.15) was left as-such, ⅓ of the preparation was enriched with 5 ppm natamycin and ⅓ of the preparation was enriched with 10 ppm natamycin. Samples of 5 ml were made from each preparation in 15 ml sterile plastic tubes. Of each preparation 8 samples were pre-heated to the desired pasteurization temperature using a water bath. Temperatures used were RT, 60, 65, 70, 75, 80, 85 and 90° C. When the desired temperature was reached, 100 μl of a 2500 spores/ml spore suspension of Aspergillus niger ATCC 9029AA was added to each tube. Subsequently, the samples were kept for 30 seconds at the temperature in question in the water bath. Next, the samples were cooled on ice to a temperature of 25° C. Samples were incubated at 25° C. and visually examined for growth (formation of mold flakes or turbidity) for two months. Additionally, samples were enumerated according to ISO protocol 21527-1.2008 on day 0 (before heat treatment) and day 1 (after heat treatment) to count immediate loss of viability. […] For the results, see Table 1. […] For comparative reasons, Example 1 was repeated with an in-house strain of Aspergillus niger. […] For the results, see Table 2.

C[C@@H]1C/C=C/C=C/C=C/C=C/[C@H](O[C@@H]2O[C@H](C)[C@@H](O)[C@H](N)[C@@H]2O)C[C@@H]2O[C@](O)(C[C@@H](O)C[C@H]3O[C@@H]3/C=C/C(=O)O1)C[C@H](O)[C@H]2C(=O)O [natamycin]
growth or no growth (60°C, 5 ppm, day 1): −
growth or no growth (60°C, 5 ppm, day 2): −
growth or no growth (60°C, 5 ppm, day 3): −
growth or no growth (60°C, 5 ppm, day 4): −
growth or no growth (60°C, 5 ppm, day 5): −
growth or no growth (60°C, 5 ppm, day 6): −
growth or no growth (60°C, 5 ppm, day 7): +
growth or no growth (60°C, 5 ppm, day 8): +
growth or no growth (60°C, 5 ppm, day 9): +
growth or no growth (60°C, 5 ppm, day 10): +
growth or no growth (60°C, 5 ppm, day 11): +
growth or no growth (60°C, 5 ppm, day 12): +
growth or no growth (60°C, 5 ppm, day 13): +
growth or no growth (60°C, 5 ppm, day 14): +
growth or no growth (60°C, 10 ppm, day 1): −
growth or no growth (60°C, 10 ppm, day 2): −
growth or no growth (60°C, 10 ppm, day 3): −
growth or no growth (60°C, 10 ppm, day 4): −
growth or no growth (60°C, 10 ppm, day 5): −
growth or no growth (60°C, 10 ppm, day 6): −
growth or no growth (60°C, 10 ppm, day 7): −
growth or no growth (60°C, 10 ppm, day 8): −
growth or no growth (60°C, 10 ppm, day 9): −
growth or no growth (60°C, 10 ppm, day 10): −
growth or no growth (60°C, 10 ppm, day 11): +
growth or no growth (60°C, 10 ppm, day 12): +
growth or no growth (60°C, 10 ppm, day 13): +
growth or no growth (60°C, 10 ppm, day 14): +
germination (65° C., 70° C. and 80° C., in the presence of natamycin): no germination occurred
growth or no growth (65°C, 5 ppm, day 1): −
growth or no growth (65°C, 5 ppm, day 2): −
growth or no growth (65°C, 5 ppm, day 3): −
growth or no growth (65°C, 5 ppm, day 4): −
growth or no growth (65°C, 5 ppm, day 5): −
growth or no growth (65°C, 5 ppm, day 6): −
growth or no growth (65°C, 5 ppm, day 7): −
growth or no growth (65°C, 5 ppm, day 8): −
growth or no growth (65°C, 5 ppm, day 9): −
growth or no growth (65°C, 5 ppm, day 10): −
growth or no growth (65°C, 5 ppm, day 11): −
growth or no growth (65°C, 5 ppm, day 12): −
growth or no growth (65°C, 5 ppm, day 13): −
growth or no growth (65°C, 5 ppm, day 14): −
growth or no growth (65°C, 10 ppm, day 1): −
growth or no growth (65°C, 10 ppm, day 2): −
growth or no growth (65°C, 10 ppm, day 3): −
growth or no growth (65°C, 10 ppm, day 4): −
growth or no growth (65°C, 10 ppm, day 5): −
growth or no growth (65°C, 10 ppm, day 6): −
growth or no growth (65°C, 10 ppm, day 7): −
growth or no growth (65°C, 10 ppm, day 8): −
growth or no growth (65°C, 10 ppm, day 9): −
growth or no growth (65°C, 10 ppm, day 10): −
growth or no growth (65°C, 10 ppm, day 11): −
growth or no growth (65°C, 10 ppm, day 12): −
growth or no growth (65°C, 10 ppm, day 13): −
growth or no growth (65°C, 10 ppm, day 14): −
growth or no growth (70°C, 5 ppm, day 1): −
growth or no growth (70°C, 5 ppm, day 2): −
growth or no growth (70°C, 5 ppm, day 3): −
growth or no growth (70°C, 5 ppm, day 4): −
growth or no growth (70°C, 5 ppm, day 5): −
growth or no growth (70°C, 5 ppm, day 6): −
growth or no growth (70°C, 5 ppm, day 7): −
growth or no growth (70°C, 5 ppm, day 8): −
growth or no growth (70°C, 5 ppm, day 9): −
growth or no growth (70°C, 5 ppm, day 10): −
growth or no growth (70°C, 5 ppm, day 11): −
growth or no growth (70°C, 5 ppm, day 12): −
growth or no growth (70°C, 5 ppm, day 13): −
growth or no growth (70°C, 5 ppm, day 14): −
growth or no growth (70°C, 10 ppm, day 1): −
growth or no growth (70°C, 10 ppm, day 2): −
growth or no growth (70°C, 10 ppm, day 3): −
growth or no growth (70°C, 10 ppm, day 4): −
growth or no growth (70°C, 10 ppm, day 5): −
growth or no growth (70°C, 10 ppm, day 6): −
growth or no growth (70°C, 10 ppm, day 7): −
growth or no growth (70°C, 10 ppm, day 8): −
growth or no growth (70°C, 10 ppm, day 9): −
growth or no growth (70°C, 10 ppm, day 10): −
growth or no growth (70°C, 10 ppm, day 11): −
growth or no growth (70°C, 10 ppm, day 12): −
growth or no growth (70°C, 10 ppm, day 13): −
growth or no growth (70°C, 10 ppm, day 14): −
growth or no growth (75°C, 5 ppm, day 1): −
growth or no growth (75°C, 5 ppm, day 2): −
growth or no growth (75°C, 5 ppm, day 3): −
growth or no growth (75°C, 5 ppm, day 4): −
growth or no growth (75°C, 5 ppm, day 5): −
growth or no growth (75°C, 5 ppm, day 6): −
growth or no growth (75°C, 5 ppm, day 7): −
growth or no growth (75°C, 5 ppm, day 8): −
growth or no growth (75°C, 5 ppm, day 9): −
growth or no growth (75°C, 5 ppm, day 10): −
growth or no growth (75°C, 5 ppm, day 11): −
growth or no growth (75°C, 5 ppm, day 12): −
growth or no growth (75°C, 5 ppm, day 13): −
growth or no growth (75°C, 5 ppm, day 14): −
growth or no growth (75°C, 10 ppm, day 9): −
growth or no growth (75°C, 10 ppm, day 10): −
germination (RT and 60° C., 5 ppm natamycin): delayed germination
germination (RT and 60° C., 10 ppm natamycin): longer delay
